Reference: patent US9636418B2 (priority 2013, dated 2017)
Values joined by “and” are separate entries in the source; they are usually repeats but may differ in a detail not shown here. Equal values may be shown once. Read-outs that look alike come from different tables or passages of the source.

How the values were obtained:
Assay in all cases: cell-based
[1] = biological target: T1, hNav1.7 (Homo sapiens, UniProt Q15858); settings: IonWorks Quattro; read-out: IC50 Nav1.7
[2] = biological target: T2, hNav1.5 (Homo sapiens, UniProt Q14524); settings: IonWorks Quattro; read-out: IC50 Nav1.5
[3] = biological target: T3, hNav1.4 (Homo sapiens, UniProt P35499); settings: for IC50: IonWorks Quattro, read-out: IC50 Nav1.4; for Nav1.4/Nav1.7: ratio of IonWorks Quattro IC50 values
[4] = biological target: hNav1.3 (Homo sapiens, UniProt Q9NY46); settings: IonWorks Quattro; read-out: IC50 Nav1.3
[5] = biological target: T1, hNav1.7; assay type: cell-based; settings: PatchXpress; * = at high concentrations compound would wash off slowly or not at all; read-out: PX hNav1.7 Tonic IC50
[6] = biological target: T3, hNav1.4; settings: for IC50: PatchXpress, * = at high concentrations compound would wash off slowly or not at all, read-out: PX hNav1.4 Tonic IC50
[7] = biological target: T2, hNav1.5; settings: PatchXpress; * = at high concentrations compound would wash off slowly or not at all; read-out: PX hNav1.5 Tonic IC50

Chain of hNav1.3 (Q9NY46 whole entry): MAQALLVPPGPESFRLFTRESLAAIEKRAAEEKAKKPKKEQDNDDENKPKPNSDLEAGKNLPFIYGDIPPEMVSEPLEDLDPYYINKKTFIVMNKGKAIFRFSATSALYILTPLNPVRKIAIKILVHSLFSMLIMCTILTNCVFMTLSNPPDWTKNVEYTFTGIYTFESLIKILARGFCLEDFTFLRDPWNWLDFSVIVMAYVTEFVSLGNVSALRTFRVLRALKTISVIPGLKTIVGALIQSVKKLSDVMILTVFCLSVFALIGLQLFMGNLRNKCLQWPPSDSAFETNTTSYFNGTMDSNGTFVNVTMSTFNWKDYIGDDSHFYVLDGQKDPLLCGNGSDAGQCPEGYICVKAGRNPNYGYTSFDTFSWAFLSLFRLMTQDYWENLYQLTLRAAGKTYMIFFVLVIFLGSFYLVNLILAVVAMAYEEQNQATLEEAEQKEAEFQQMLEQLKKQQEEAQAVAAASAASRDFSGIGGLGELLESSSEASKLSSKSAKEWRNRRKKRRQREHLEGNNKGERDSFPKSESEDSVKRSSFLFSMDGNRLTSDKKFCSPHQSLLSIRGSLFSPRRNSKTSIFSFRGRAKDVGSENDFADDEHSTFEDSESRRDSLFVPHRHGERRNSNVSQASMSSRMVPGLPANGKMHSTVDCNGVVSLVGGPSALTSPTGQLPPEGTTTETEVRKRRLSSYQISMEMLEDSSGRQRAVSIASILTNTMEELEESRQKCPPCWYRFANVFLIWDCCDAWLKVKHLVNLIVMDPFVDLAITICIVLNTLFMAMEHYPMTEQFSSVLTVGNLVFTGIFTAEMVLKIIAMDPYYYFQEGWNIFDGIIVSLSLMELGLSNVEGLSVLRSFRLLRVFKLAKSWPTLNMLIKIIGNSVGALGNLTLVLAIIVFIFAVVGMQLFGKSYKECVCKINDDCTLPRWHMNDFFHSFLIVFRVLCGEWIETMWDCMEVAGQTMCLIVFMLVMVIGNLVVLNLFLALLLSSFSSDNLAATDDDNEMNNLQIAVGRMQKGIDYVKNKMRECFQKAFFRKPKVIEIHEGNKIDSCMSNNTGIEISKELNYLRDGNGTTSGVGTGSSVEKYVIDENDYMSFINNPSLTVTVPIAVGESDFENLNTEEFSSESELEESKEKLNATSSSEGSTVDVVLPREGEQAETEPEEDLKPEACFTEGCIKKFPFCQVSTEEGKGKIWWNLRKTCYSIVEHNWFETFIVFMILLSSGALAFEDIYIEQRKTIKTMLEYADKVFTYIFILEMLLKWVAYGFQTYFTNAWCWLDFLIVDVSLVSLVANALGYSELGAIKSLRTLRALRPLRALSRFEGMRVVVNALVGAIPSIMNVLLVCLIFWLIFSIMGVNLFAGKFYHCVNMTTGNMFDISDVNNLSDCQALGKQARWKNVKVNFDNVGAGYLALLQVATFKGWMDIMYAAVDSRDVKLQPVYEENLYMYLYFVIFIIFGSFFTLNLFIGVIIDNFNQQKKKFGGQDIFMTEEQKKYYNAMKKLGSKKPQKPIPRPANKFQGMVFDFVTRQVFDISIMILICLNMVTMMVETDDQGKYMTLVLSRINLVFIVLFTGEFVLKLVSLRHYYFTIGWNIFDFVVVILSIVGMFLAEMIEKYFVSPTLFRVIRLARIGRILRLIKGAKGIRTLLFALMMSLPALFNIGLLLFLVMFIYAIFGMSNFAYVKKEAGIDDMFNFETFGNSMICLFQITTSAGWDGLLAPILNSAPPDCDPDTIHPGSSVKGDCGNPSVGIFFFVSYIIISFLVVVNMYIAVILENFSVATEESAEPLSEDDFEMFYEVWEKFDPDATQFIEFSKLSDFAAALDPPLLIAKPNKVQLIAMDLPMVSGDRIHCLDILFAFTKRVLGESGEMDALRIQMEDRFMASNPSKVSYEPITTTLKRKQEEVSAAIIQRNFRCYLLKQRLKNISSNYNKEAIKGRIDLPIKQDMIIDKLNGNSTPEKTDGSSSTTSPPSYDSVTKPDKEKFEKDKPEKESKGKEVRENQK
T3 sequence (P35499 whole entry): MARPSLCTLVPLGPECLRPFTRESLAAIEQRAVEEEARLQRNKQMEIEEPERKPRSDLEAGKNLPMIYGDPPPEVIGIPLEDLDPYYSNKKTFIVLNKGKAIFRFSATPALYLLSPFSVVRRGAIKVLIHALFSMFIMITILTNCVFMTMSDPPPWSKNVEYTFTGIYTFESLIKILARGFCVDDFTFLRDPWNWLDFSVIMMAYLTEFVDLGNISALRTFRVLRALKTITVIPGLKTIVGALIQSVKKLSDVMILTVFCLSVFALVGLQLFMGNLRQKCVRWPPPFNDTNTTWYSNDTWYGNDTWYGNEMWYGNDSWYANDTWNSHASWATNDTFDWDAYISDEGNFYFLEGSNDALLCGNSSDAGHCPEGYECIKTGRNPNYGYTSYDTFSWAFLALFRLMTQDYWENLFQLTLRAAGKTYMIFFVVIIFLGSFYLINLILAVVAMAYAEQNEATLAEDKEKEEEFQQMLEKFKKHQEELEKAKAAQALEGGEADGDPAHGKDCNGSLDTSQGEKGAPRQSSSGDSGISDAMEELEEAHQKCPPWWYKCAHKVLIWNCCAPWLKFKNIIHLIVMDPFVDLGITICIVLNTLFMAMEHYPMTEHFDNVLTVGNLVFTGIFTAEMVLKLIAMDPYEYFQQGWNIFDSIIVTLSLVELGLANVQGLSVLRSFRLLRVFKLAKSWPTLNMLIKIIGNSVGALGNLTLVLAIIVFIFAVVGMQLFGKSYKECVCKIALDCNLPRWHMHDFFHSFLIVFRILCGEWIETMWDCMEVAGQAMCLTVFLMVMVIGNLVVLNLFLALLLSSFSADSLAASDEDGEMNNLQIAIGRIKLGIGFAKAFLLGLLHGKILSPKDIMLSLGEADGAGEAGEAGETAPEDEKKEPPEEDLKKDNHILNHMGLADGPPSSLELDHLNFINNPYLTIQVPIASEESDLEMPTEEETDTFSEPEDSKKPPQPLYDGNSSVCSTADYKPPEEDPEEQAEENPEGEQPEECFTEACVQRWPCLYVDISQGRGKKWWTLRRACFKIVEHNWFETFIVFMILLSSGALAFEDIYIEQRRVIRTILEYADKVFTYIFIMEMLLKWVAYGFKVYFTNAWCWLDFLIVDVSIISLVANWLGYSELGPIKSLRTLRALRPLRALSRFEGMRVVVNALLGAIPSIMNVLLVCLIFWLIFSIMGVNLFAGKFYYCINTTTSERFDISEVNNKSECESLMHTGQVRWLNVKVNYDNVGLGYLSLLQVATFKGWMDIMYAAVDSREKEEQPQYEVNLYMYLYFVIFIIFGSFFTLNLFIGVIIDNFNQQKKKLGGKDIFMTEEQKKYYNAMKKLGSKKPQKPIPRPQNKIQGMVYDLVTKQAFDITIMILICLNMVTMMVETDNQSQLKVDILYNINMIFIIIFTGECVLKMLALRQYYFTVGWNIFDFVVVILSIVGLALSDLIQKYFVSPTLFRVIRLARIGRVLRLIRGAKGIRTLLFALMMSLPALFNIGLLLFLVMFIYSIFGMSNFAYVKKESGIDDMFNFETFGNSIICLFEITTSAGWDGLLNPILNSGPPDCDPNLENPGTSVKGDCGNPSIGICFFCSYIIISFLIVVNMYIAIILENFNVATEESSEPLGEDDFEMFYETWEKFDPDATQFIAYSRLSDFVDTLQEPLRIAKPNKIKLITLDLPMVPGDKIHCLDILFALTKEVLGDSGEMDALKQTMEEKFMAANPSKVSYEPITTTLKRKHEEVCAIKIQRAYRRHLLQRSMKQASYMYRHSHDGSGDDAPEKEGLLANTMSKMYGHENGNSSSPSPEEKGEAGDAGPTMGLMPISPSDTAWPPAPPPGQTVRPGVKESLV

| SMILES | IC50 [1] | IC50 [2] | IC50 [3] | IC50 [4] | IC50 [5] | IC50 [6] | IC50 [7] | Nav1.4/Nav1.7 [3] | Nav1.4/Nav1.7 ([6]; ratio of PX IC50 values) |
| --- | --- | --- | --- | --- | --- | --- | --- | --- | --- |
| CC[C@H](C)[C@H](NC(=O)[C@H](Cc1ccc(O)cc1)NC(=O)[C@H](CCCCN)NC(=O)[C@H](CCCNC(=N)N)NC(=O)[C@@H]1CSSC[C@@H]2NC(=O)[C@H](C)NC(=O)[C@H](CCCNC(=N)N)NC(=O)[C@H](CCCCN)NC(=O)[C@H](CO)NC(=O)[C@H](CC(=O)O)NC(=O)[C@@H]3CSSC[C@H](NC(=O)[C@H](CCC(=O)O)NC(=O)[C@H](CC(C)C)NC(=O)CNC(=O)[C@H](CCC(=O)O)NC(=O)[C@H](CSSC[C@H](NC(=O)[C@@H](N)Cc4ccc(O)cc4)C(=O)N[C@@H](CCC(N)=O)C(=O)N[C@@H](CCCCN)C(=O)N[C@@H](Cc4c[nH]c5ccccc45)C(=O)N[C@@H](CCSC)C(=O)N[C@@H](Cc4c[nH]c5ccccc45)C(=O)N[C@@H]([C@@H](C)O)C(=O)N3)NC2=O)C(=O)N[C@@H](CCCCN)C(=O)N[C@@H](CC(C)C)C(=O)N[C@@H](Cc2cccc3ccccc23)C(=O)N1)C(N)=O [compound 218] | 0.3 µM | > 7 µM | > 7 µM | > 7 µM | 0.012 µM | 5.21 µM | 10 µM |  |  |
| CCC[C@H](NC(=O)[C@H](CCCCN)NC(=O)[C@H](CCCNC(=N)N)NC(=O)[C@@H]1CSSC[C@@H]2NC(=O)[C@H](C)NC(=O)[C@H](CCCNC(=N)N)NC(=O)[C@H](CCCCN)NC(=O)[C@H](CO)NC(=O)[C@H](CC(=O)O)NC(=O)[C@@H]3CSSC[C@H](NC(=O)[C@H](CCC(=O)O)NC(=O)[C@H](CC(C)C)NC(=O)CNC(=O)[C@H](CCC(=O)O)NC(=O)[C@H](CSSC[C@H](NC(=O)[C@@H](N)Cc4ccc(O)cc4)C(=O)N[C@@H](CCC(N)=O)C(=O)N[C@@H](CCCCN)C(=O)N[C@@H](Cc4c[nH]c5ccccc45)C(=O)N[C@@H](CCSC)C(=O)N[C@@H](Cc4c[nH]c5ccccc45)C(=O)N[C@@H]([C@@H](C)O)C(=O)N3)NC2=O)C(=O)N[C@@H](CCCCN)C(=O)N[C@@H](CC(C)C)C(=O)N[C@@H](Cc2c[nH]c3ccccc23)C(=O)N1)C(=O)N[C@H](C(N)=O)[C@@H](C)CC [compound 136] | 0.08 µM and 0.15 µM | 8.9 µM and 15.8 µM | > 5 µM | > 5 µM | 0.0128 µM | 5.19 µM | 7.82 µM | 66 and 34 |  |
| CSCC[C@@H]1NC(=O)[C@H](Cc2c[nH]c3ccccc23)NC(=O)[C@H](CCCCN)NC(=O)[C@H](CCC(N)=O)NC(=O)[C@@H](NC(=O)[C@@H](N)Cc2ccc(O)cc2)CSSC[C@@H]2NC(=O)[C@@H]3CSSC[C@@H](C(=O)N[C@@H](CCCNC(=N)N)C(=O)N[C@@H](CCCCN)C(=O)N[C@@H](Cc4ccc(O)cc4)C(=O)N[C@@H](Cc4ccc5ccccc5c4)C(N)=O)NC(=O)[C@H](Cc4c[nH]c5ccccc45)NC(=O)[C@H](CC(C)C)NC(=O)[C@H](CCCCN)NC(=O)[C@H](CSSC[C@H](NC(=O)[C@H]([C@@H](C)O)NC(=O)[C@H](Cc4c[nH]c5ccccc45)NC1=O)C(=O)N[C@@H](CC(=O)O)C(=O)N[C@@H](CO)C(=O)N[C@@H](CCCCN)C(=O)N[C@@H](CCCNC(=N)N)C(=O)N[C@@H](C)C(=O)N3)NC(=O)[C@H](CCC(=O)O)NC(=O)[C@H](CC(C)C)NC(=O)CNC(=O)[C@H](CCC(=O)O)NC2=O [compound 233] | 0.044 µM | > 5 µM | > 5 µM | 2.2 µM | 0.0046 µM | 1.22 µM | 1.99 µM |  |  |
| CC[C@H](C)[C@H](NC(=O)[C@@H](NC(=O)[C@H](CCCCN)NC(=O)[C@H](CCCNC(=N)N)NC(=O)[C@@H]1CSSC[C@@H]2NC(=O)[C@H](C)NC(=O)[C@H](CCCNC(=N)N)NC(=O)[C@H](CCCCN)NC(=O)[C@H](CO)NC(=O)[C@H](CC(=O)O)NC(=O)[C@@H]3CSSC[C@H](NC(=O)[C@H](CCC(=O)O)NC(=O)[C@H](CC(C)C)NC(=O)CNC(=O)[C@H](CCC(=O)O)NC(=O)[C@H](CSSC[C@H](NC(=O)[C@@H](N)Cc4ccc(O)cc4)C(=O)N[C@@H](CCC(N)=O)C(=O)N[C@@H](CCCCN)C(=O)N[C@@H](Cc4c[nH]c5ccccc45)C(=O)N[C@@H](CCSC)C(=O)N[C@@H](Cc4c[nH]c5ccccc45)C(=O)N[C@@H]([C@@H](C)O)C(=O)N3)NC2=O)C(=O)N[C@@H](CCCCN)C(=O)N[C@@H](CC(C)C)C(=O)N[C@@H](Cc2c[nH]c3ccccc23)C(=O)N1)C(C)C)C(N)=O [compound 133] | 0.08 µM | 12 µM | 4 µM | 4.85 µM | 0.0041 µM | 1.31 µM | 5.5 µM | 51 | 320 |
| CC[C@H](C)[C@H](NC(=O)[C@H](CCCNC(N)=O)NC(=O)[C@H](CCCCN)NC(=O)[C@H](CCCNC(=N)N)NC(=O)[C@@H]1CSSC[C@@H]2NC(=O)[C@H](C)NC(=O)[C@H](CCCNC(=N)N)NC(=O)[C@H](CCCCN)NC(=O)[C@H](CO)NC(=O)[C@H](CC(=O)O)NC(=O)[C@@H]3CSSC[C@H](NC(=O)[C@H](CCC(=O)O)NC(=O)[C@H](CC(C)C)NC(=O)CNC(=O)[C@H](CCC(=O)O)NC(=O)[C@H](CSSC[C@H](NC(=O)[C@@H](N)Cc4ccc(O)cc4)C(=O)N[C@@H](CCC(N)=O)C(=O)N[C@@H](CCCCN)C(=O)N[C@@H](Cc4c[nH]c5ccccc45)C(=O)N[C@@H](CCSC)C(=O)N[C@@H](Cc4c[nH]c5ccccc45)C(=O)N[C@@H]([C@@H](C)O)C(=O)N3)NC2=O)C(=O)N[C@@H](CCCCN)C(=O)N[C@@H](CC(C)C)C(=O)N[C@@H](Cc2c[nH]c3ccccc23)C(=O)N1)C(N)=O [compound 135] | 0.11 µM | 12 µM | > 5 µM | > 5 µM | 0.0056 µM | 6.02 µM | > 10 µM | 46 |  |
| CCCC[C@H](NC(=O)[C@H](Cc1ccc(O)cc1)NC(=O)[C@H](CCCCN)NC(=O)[C@H](CCCNC(=N)N)NC(=O)[C@@H]1CSSC[C@@H]2NC(=O)[C@H](C)NC(=O)[C@H](CCCNC(=N)N)NC(=O)[C@H](CCCCN)NC(=O)[C@H](CO)NC(=O)[C@H](CC(=O)O)NC(=O)[C@@H]3CSSC[C@H](NC(=O)[C@H](CCC(=O)O)NC(=O)[C@H](CC(C)C)NC(=O)CNC(=O)[C@H](CCC(=O)O)NC(=O)[C@H](CSSC[C@H](NC(=O)[C@@H](N)Cc4ccc(O)cc4)C(=O)N[C@@H](CCC(N)=O)C(=O)N[C@@H](CCCCN)C(=O)N[C@@H](Cc4c[nH]c5ccccc45)C(=O)N[C@@H](CCSC)C(=O)N[C@@H](Cc4c[nH]c5ccccc45)C(=O)N[C@@H]([C@@H](C)O)C(=O)N3)NC2=O)C(=O)N[C@@H](CCCCN)C(=O)N[C@@H](CC(C)C)C(=O)N[C@@H](Cc2c[nH]c3ccccc23)C(=O)N1)C(N)=O [compound 239] | 0.079 µM | > 5 µM | > 5 µM | 4 µM | 0.0062 µM | 0.786 µM | 9.77 µM |  |  |
